Data taken from article PMC7408562, “The Interaction of Temozolomide with Blood Components Suggests the Potential Use of Human Serum Albumin as a Biomimetic Carrier for the Drug” (Biomolecules, 2020).

Target: T1, human serum albumin (HSA) (Homo sapiens, UniProt P02768)
T1 construct: gene ALB
Test: intrinsic tryptophan fluorescence quenching titration (water, […] °C; also pH […] phosphate buffer), supported by delayed TMZ hydrolysis
Assay type: binding

T1 sequence (P02768 25-609): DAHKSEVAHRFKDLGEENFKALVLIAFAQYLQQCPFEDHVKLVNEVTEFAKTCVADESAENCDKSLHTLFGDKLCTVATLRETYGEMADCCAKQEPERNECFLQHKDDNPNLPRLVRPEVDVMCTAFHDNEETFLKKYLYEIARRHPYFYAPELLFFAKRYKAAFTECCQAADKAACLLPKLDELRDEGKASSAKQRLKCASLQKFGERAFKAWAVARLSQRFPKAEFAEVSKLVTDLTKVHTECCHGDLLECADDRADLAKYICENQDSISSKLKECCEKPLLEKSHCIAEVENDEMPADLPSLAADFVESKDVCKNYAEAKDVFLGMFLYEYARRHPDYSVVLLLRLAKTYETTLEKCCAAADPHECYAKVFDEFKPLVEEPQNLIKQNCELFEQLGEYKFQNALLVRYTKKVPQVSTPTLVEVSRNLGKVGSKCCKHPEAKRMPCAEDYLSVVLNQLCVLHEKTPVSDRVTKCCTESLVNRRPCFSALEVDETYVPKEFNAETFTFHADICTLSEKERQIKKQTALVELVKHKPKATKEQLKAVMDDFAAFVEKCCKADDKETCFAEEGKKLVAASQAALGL

Kd: ~200 µM
SMILES: Cn1nnc2c(C(N)=O)ncn2c1=O [TMZ, Temozolomide]
